# Test results from patent US8288423B2, “FXa inhibitors with cyclic amidines as P4 subunit, processes for their preparations, and pharmaceutical compositions and derivatives thereof” (Legochem Bioscience Ltd., priority 2007, dated 2012).
# Like-named read-outs stand apart in the source and are kept apart here.
# B1: antistasin (protein, UniProt P15358 18-136, looked up)
# Antistasin: QGPFGPGCEEAGCPEGSACNIITDRCTCSGVRCRMHCPHGFQRSRYGCEFCKCRLEPMKATCDISECPEGMMCSRLTNKCDCKIDINCRKTCPNGLKRDKLGCEYCECRPKRKLIPRLS
# Columns and labels:
# [1] = molecular target: T1, factor Xa (Homo sapiens, UniProt P00742); assay: Inhibiting activity of factor Xa inhibitor (chromogenic substrate S-2765); format: biochemical; conditions: calculated from IC50 by Equation 1, Km 125 μM; S-2765 substrate, pH 7.8, 37° C.; read-out: Ki (nM), factor Xa inhibition constant
# T1 construct: purchased Enzyme Research Laboratories
# Method: Relative rate of hydrolysis (as compared to control group without inhibition) was plotted versus logarithm of the concentration of the oxazolidinone derivative with a cyclic amidine represented by Chemical Formula (1) according to the invention, to obtain the concentration of the inhibitor for 50% decrease in the rate of hydrolysis of the substrate.
# The inhibition constant can be obtained by spectrophotometry whereby the color development is determined as a function of time, after being reacted with a specific substrate which develops color upon hydrolysis caused by action of factor Xa.
# For the inhibitor solution, the inhibitor compound according to the present invention was diluted with dimethylsulfoxide (DMSO) in 10 mM, and then further diluted with third-distilled water (finally 10% DMSO solution), and the solution (10 μL) was added to each well. […] The substrate solution (20 μL) thus prepared was added to each well.
# Kinetic analysis of the reaction was performed by a kinetic plate reader (Molecular Devices, Spectramax 190) at 37° C. for 20 minutes.
# Relative rate of hydrolysis (compared to control group without inhibition) versus logarithm of the oxazolidinone derivative with a cyclic amidine group (Chemical Formula I) was plotted to obtain the concentration of the inhibitor to decrease the rate of hydrolysis of the substrate by 50%. GraFit (version 5.0.12) program for statistical process purchased from Erithacus Software was employed.
# When inhibition constant Ki is calculated, it can be calculated according to Equation (1).
# [2] = test system: Citrated plasma; assay: Measurement of PT (prothrombin time) in citrated plasma; format: biochemical; conditions: STA-Neoplastine, 37° C., unit not given (2×PT value)
# Method: The effect of oxazolidinone derivatives with cyclic amidines represented by Chemical Formula (1) according to the invention on blood coagulation was compared by measuring PT (prothrombin time) and aPTT (activated Partial Thromboplastin Time). The procedure of measurement is described below. Citrated plasma was purchased from Daejeon-Chungnam Blood Institute (located at Daejeon, Korea). A compound solution (5 μL) according to the invention (in a various concentration gradient, 5% DMSO solution) was added to the plasma ([…]), and the reaction was carried out at 37° C. for 5 minutes. STA-Neoplastine (Diagnostica Stago) (100 μL) was then added thereto, and the duration for plasma coagulation was measured. The duration for plasma coagulation is determined as the point when the absorbance at 340 nm reaches 0.1.
# [3] = test system: plasma; assay: Measurement of aPTT (activated partial thromboplastin time) in plasma; format: biochemical; set-up: unit not given here; conditions: STA-PTT, CaCl2, 37° C., unit not given
# Method: The effect of oxazolidinone derivatives with cyclic amidines represented by Chemical Formula (1) according to the invention on blood coagulation was compared by measuring PT (prothrombin time) and aPTT (activated Partial Thromboplastin Time). The procedure of measurement is described below. A solution (5 μL) of the oxazolidinone derivative with cyclic amidine group represented by Chemical Formula (1) according to the invention (in a various concentration gradient, 5% DMSO solution) was added to the plasma ([…]), and the reaction was carried out at 37° C. for 2 minutes. STA-PTT (Diagnostica Stago) (50 μL) was then added thereto. After the reaction at 37° C. for additional 5 minutes, 25 mM CaCl2 (50 μL) was added thereto, and the duration for plasma coagulation was measured. The duration for plasma coagulation was determined as the point when the absorbance at 340 nm reaches 0.1.
# [4] = test system: thrombus formation; assay: % inhibition against thrombus formation, arteriovenous shunt model in white rats; format: in vivo, white rats (male Sprague Dawley); set-up: concentration or dose not given beside the values; conditions: orally administered 1 hour before opening of the shunt; 15 minutes circulation; versus control group
# Method: 3) Determination of % Inhibition Against Thrombus Formation by Means of Arteriovenous Shunt Model ([…]) in White Rats Antithrombotic effect of the compounds according to the present invention was evaluated by using arteriovenous shunt model in white rats. The animals used were male Sprague Dawleys with the body weight of 200-250 g. For one day before the experiment, the animals were fasted. Five to six animals were used for each test group. The compound of Example was orally administered 1 hour before opening of the shunt. The rats were anesthetized by abdominal administration of Rompun (Bay HealthCare) and Chloral hydrate or urethane in an amount of 12 and 50 mg per kg of the body weight. Into the left carotid artery and right jugular vein of the white rat, a polyethylene(PE)-60 tubing filled with physiological saline was inserted and secured. Both ends of individual PE tubing were connected to a silicone tubing having a length of 5 cm in which a cotton thread have been incorporated diagonally, and the shunt was open to provide circulation for 15 minutes. The shunt was then compressed by using jaws, and the cotton thread was carefully removed and the thrombus generated was weighed. The % inhibition of thrombus formation was calculated by using the weight of thrombus obtained from white rats of the control group to which a solution of oral administration was administered.
# [5] = Determination of aqueous solubility; format: physicochemical; conditions: aqueous with cosolvent or surfactant or cyclodextrin, kinetic from dmso stock; 100 mM potassium phosphate buffer pH 7.4, 5% DMSO, final concentration 500 μM, ambient temperature 90 minutes
# Method: The plate was agitated at ambient temperature for 90 minutes with a rate of 225 rpm. After agitation, the content of the plate was filtered with application of pressure. The filtrate (160 μL) was individually transferred to a uv-96 well plate (Costar), and mixed with 40 μL of acetonitrile, and then agitated at ambient temperature for 10 minutes with a rate of 225 rpm. By means of a plate reader (Molecular Devices, Spectramax 190), absorbances at the wavelengths of 280, 300, 320, 340, 360 and 800 nm were measured. As a reference solution, employed was 100 mM potassium phosphate buffer (pH 7.4) containing 20% acetonitrile added by 10 mM DMSO solution (8 μL).
# [6] = test system: plasma protein; assay: Determination of plasma protein binding (ultrafiltration, LC-MS/MS); format: in vitro ADME; conditions: citrated plasma, 37° C., 60 minutes, Ultracel-10 filter
# Method: Citrated plasma was purchased from Daejeon-Chungnam Blood Institute (located at Daejeon, Korea). A compound solution (500 μM in DMSO) (10 μL), according to the invention Was added to the plasma (1 mL), and the reaction was carried out at 37° C. and 120 rpm for 60 minutes. To three wells of Ultracel-10 filter plate (Millipore), the reaction solution was transferred (300 μL each). Then, the plasma solution (70 μL) was taken, and the total concentration of the compound was quantified by means of LC-MS/MS (API3000, ABI). After centrifuging the Ultracel-10 filter plate at 37° C. and 2000×g for 45 minutes, the filtrate was taken to determine the concentration of the compound which was not bound to the plasma protein. Percentage of plasma protein binding was obtained via Equation (2): % Protein binding=(1−concentration of compound in filtrate/concentration of compound in entire solution)×100% Free=100−% Protein binding [Equation 2]
# [7] = background art; cited from earlier work
# [8] = molecular target: T1, factor Xa; conditions: background art; cited from earlier work
# T1 sequence (P00742 235-488 limits assumed): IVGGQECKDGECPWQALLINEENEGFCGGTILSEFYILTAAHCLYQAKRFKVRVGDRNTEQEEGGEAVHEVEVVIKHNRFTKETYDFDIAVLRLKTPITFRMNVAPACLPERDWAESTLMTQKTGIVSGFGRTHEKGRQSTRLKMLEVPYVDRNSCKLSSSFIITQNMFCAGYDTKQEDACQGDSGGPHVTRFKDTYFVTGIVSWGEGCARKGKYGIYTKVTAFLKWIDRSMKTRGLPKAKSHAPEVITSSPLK
# T1 sequence (P00742 41-179 partner limits assumed): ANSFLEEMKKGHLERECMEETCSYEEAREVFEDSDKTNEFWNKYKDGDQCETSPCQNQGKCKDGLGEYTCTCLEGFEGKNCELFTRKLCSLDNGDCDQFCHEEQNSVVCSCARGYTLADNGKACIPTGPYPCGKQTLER
Molecule,Ki [1] [nM],PT [2],APTT [3],% Inhibition (of thrombus formation) [4] [%],solubility at 90 min [5] [µM],Plasma protein binding (% Free) [6] [% Free],solubility [7],Ki [8] [nM]
"O=C(NC[C@H]1CN(c2ccc(C3=NCCN3)cc2)C(=O)O1)c1ccc(Cl)s1 [Compound 100, 5-chlorothiophene-2-carboxylic acid {(S)-3-[4-(4,5-dihydro-1H-imidazol-2-yl)-phenyl]-2-oxo-oxazolidin-5-ylmethyl}-amide]",47,0.22,2.29,40,441,17,–,–
"CN1CCN=C1c1ccc(N2C[C@H](CNC(=O)c3ccc(Cl)s3)OC2=O)cc1 [Compound 101, 5-chlorothiophene-2-carboxylic acid {(S)-3-[4-(1-methyl-4,5-dihydro-1H-imidazol-2-yl)-phenyl]-2-oxo-oxazolidin-5-ylmethyl}-amide]",2.97,0.05,0.22,2,434,23,–,–
"CCN1CCN=C1c1ccc(N2C[C@H](CNC(=O)c3ccc(Cl)s3)OC2=O)cc1 [Compound 102, 5-chlorothiophene-2-carboxylic acid {(S)-3-[4-(1-ethyl-4,5-dihydro-1H-imidazole-2-yl)-phenyl]-2-oxo-oxazolidin-5-ylmethyl}-amide]",3.43,0.04,0.17,26,462,28,–,–
"CN1CCCN=C1c1ccc(N2C[C@H](CNC(=O)c3ccc(Cl)s3)OC2=O)cc1 [Compound 107, 5-chlorothiophene-2-carboxylic acid {(S)-3-[4-(1-methyl-1,4,5,6-tetrahydropyrimidine-2-yl)-phenyl]-2-oxo-oxazolidin-5-ylmethyl}-amide]",5.7,0.09,0.28,50,411,31,–,–
O=C(NC[C@H]1CN(c2ccc(N3CCN=C3C3CC3)cc2)C(=O)O1)c1ccc(Cl)s1 [Compound 117],3.18,0.04,0.29,68,484,17,–,–
O=C(NC[C@H]1CN(c2ccc(N3CCN=C3c3ccco3)cc2)C(=O)O1)c1ccc(Cl)s1 [Compound 123],0.39,0.07,0.26,71,474,3,–,–
CC1=NCCN1c1ccc(N2C[C@H](CNC(=O)c3ccc(Br)s3)OC2=O)cc1 [Compound 138],2.38,0.04,0.16,27,–,–,–,–
O=C(NC[C@H]1CN(c2ccc(N3CCN=C3c3ccco3)cc2)C(=O)O1)c1ccc(Br)s1 [Compound 139],1.47,0.07,0.47,60,–,–,–,–
CCC1=NCCCN1c1ccc(N2C[C@H](CNC(=O)c3ccc(Cl)s3)OC2=O)cc1 [Compound 142],2.52,0.04,0.17,47,–,–,–,–
"O=C(NC[C@H]1CN(c2ccc(N3CCOCC3=O)cc2)C(=O)O1)c1ccc(Cl)s1 [Rivaroxaban, reference compound]",–,0.09,0.39,83,50,9,about 8 mg/L,–
"tick anticoagulant peptide (YNRLCIKPRDWIDECDSNEGGERAYFRNGKGGCDSFWICPEDHTGADYYSSYRDCFNACI; UniProt P17726 1-60, looked up) [TAP]",–,–,–,–,–,–,–,0.5
B1,–,–,–,–,–,–,–,0.05
